In ChEMBL document CHEMBL1201862, “PubChem BioAssay data set” (2004):
Active and inactive are the calls of the source.

Experiments:
Genome polyprotein = Genome polyprotein (dengue virus type 2, UniProt P29990); experiment: Dengue-2 NS5 methyltransferase inhibitors, primary screen, biochemical, confirmation dose response (AID 588689); assay type: functional
[1] = target: Potassium voltage-gated channel subfamily KQT member 2 (Rattus norvegicus, UniProt O88943, W236L); experiment: KCNQ2 channel potentiators, dose response, mechanism study for KCNQ2 potentiator project, cell-based, automated electrophysiology (AID 2603); assay type: functional
Sequence of Potassium voltage-gated channel subfamily KQT member 2 (O88943 whole entry W236L): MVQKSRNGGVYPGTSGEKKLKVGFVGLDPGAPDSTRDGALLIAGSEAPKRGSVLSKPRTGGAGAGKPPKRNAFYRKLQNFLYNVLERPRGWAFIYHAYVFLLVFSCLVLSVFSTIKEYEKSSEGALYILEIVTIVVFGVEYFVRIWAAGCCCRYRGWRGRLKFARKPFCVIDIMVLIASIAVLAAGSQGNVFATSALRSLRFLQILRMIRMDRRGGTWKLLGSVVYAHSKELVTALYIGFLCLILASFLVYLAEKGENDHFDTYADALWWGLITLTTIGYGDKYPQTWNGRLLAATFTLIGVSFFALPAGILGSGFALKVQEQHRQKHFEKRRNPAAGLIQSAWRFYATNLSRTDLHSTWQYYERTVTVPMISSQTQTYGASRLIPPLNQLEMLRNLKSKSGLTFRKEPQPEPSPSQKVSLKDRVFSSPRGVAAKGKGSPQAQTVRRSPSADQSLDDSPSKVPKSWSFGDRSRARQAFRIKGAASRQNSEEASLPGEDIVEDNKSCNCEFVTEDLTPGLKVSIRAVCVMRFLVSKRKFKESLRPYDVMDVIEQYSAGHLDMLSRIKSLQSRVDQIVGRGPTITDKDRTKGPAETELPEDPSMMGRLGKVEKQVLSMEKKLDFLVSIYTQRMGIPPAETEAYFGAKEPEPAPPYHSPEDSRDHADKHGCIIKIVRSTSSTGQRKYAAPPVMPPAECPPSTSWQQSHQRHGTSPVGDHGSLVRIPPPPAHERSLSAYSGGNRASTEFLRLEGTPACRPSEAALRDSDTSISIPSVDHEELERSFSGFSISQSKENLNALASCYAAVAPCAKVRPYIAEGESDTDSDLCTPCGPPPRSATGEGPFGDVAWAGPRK

Protein RecA = target: T1, Protein RecA (Mycobacterium tuberculosis, UniProt P9WHJ3); experiment: Fluorescence Cell-Free Homogeneous Dose Retest to Identify Inhibitors of RecA-Intein Splicing Activity. [Related pubchem assays (depositor defined):AID2097, AID2223, AID489010, AID492950]; assay type: functional
T1 sequence (P9WHJ3 whole entry): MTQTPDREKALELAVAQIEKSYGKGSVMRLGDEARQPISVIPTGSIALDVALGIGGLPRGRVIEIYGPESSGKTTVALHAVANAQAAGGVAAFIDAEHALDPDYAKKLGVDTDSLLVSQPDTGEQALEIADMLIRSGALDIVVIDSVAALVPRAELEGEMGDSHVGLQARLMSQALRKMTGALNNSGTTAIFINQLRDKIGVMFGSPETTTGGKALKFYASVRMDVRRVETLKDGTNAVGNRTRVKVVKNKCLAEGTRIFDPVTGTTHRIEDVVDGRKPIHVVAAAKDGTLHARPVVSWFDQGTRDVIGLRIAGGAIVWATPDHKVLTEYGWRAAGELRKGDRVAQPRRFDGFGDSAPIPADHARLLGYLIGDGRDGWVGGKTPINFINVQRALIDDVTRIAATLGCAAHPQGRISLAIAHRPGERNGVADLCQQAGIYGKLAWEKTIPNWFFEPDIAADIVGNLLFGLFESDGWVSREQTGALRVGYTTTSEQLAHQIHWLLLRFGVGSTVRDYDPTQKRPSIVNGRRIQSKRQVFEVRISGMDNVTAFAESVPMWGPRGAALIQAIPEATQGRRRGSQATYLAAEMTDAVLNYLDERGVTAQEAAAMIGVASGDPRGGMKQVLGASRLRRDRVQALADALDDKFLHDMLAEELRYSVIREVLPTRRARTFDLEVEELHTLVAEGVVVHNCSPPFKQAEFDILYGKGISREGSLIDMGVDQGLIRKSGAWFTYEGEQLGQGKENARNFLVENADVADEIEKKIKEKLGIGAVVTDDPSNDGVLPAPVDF

[2] = control 3'UTR Renilla luciferase suppression, dose response, counter-screen for Shn3 inhibitor project, cell-based, Clone20-Shn3RL, cherry-picked (AID 624133); assay type: functional
[3] = target: T2, High affinity choline transporter 1 (Homo sapiens, UniProt Q9GZV3); experiment: CHT inhibitors, dose response, cell-based, 5-point CRC, membrane potential dye (AID 504840); assay type: functional
T2 sequence (Q9GZV3 whole entry): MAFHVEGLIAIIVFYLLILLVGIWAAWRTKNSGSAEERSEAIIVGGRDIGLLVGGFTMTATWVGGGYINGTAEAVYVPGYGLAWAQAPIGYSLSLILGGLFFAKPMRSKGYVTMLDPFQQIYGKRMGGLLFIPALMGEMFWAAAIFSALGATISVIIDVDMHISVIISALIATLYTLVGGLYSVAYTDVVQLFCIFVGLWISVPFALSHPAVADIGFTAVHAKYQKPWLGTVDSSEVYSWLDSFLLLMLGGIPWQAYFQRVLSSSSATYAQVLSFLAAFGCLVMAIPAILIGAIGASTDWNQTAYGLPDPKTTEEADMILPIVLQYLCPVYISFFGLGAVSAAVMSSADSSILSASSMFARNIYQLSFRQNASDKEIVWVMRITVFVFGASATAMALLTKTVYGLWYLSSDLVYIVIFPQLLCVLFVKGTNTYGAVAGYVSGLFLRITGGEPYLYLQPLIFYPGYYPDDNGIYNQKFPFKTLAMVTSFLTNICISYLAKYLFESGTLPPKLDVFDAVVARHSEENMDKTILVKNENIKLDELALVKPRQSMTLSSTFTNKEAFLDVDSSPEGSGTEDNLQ

[4] = target: ATP-binding cassette sub-family B member 6 (Homo sapiens, UniProt Q9NP58); experiment: ABCB6 transporter inhibitors, porphyrin accumulation, dose response, flow cytometry, K562-ABCB6 cells, cherry pick 02 (AID 624487); assay type: functional; settings: read-out: EC50_MICROM
Sequence of ATP-binding cassette sub-family B member 6 (Q9NP58 whole entry): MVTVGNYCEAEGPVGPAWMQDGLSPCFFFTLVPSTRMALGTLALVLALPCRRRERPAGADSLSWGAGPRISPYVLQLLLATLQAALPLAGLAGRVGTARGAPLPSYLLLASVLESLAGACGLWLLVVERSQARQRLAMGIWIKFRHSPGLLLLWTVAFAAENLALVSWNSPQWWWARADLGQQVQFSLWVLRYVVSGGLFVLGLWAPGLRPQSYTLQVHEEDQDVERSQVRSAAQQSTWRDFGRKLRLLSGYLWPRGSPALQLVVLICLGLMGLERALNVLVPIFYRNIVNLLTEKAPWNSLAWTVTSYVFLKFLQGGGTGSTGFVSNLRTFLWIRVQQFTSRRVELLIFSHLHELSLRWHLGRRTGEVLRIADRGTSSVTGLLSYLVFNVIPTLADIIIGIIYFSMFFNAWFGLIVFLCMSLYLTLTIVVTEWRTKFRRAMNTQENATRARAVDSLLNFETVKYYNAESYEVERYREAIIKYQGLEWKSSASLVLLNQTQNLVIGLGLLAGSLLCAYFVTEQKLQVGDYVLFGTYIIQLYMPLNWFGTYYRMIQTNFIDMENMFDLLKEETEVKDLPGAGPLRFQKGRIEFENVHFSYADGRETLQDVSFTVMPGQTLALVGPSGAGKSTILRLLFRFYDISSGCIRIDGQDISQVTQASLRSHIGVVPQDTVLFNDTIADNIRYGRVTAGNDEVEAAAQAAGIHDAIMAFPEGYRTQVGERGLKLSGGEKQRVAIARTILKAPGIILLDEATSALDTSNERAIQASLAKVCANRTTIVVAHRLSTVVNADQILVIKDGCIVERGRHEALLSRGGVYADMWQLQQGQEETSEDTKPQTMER

Vero = Vero cell cytotoxicity, cytotoxicity control for flavivirus capping enzyme inhibitors (AID 588742); assay type: functional; settings: Chlorocebus sabaeus
[5] = Shn3 3'UTR reporter inhibitors, dose response, cell-based, Clone20 osteoblasts, firefly luciferase, cherry-picked (AID 624132); assay type: functional;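 also: firefly luciferase luminescence from reporter carrying the Shn3 3'UTR in osteoblasts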
[6] = target: T3, Replicative DNA helicase DnaB (Mycobacterium tuberculosis, UniProt P9WMR3); experiment: DnaB intein splicing inhibitors, dose response, biochemical, cell-free fluorescence (AID 449749); assay type: functional
T3 sequence (P9WMR3 whole entry): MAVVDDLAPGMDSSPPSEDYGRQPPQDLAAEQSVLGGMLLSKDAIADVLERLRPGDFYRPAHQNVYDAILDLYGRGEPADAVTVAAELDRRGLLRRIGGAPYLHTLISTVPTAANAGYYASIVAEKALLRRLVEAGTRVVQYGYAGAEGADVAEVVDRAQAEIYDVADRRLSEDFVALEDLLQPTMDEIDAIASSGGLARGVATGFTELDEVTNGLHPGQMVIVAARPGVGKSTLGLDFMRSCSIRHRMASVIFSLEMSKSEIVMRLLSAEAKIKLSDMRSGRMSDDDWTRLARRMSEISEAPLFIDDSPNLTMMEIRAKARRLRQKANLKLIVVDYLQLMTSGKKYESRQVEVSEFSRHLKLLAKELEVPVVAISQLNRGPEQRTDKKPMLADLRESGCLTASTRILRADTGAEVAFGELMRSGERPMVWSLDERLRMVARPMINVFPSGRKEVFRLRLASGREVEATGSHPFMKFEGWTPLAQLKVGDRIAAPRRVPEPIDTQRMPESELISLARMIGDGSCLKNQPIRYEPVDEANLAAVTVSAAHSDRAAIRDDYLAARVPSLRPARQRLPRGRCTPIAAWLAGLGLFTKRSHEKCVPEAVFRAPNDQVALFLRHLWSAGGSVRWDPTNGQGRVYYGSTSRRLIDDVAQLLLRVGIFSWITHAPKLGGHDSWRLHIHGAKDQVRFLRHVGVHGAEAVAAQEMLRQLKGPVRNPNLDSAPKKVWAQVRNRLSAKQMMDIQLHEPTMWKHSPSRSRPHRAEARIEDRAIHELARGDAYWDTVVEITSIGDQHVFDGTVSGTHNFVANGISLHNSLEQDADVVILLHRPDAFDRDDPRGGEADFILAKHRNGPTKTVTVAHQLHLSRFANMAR

BJ [7] = experiment: cells; assay type: functional, cell-based; settings: Homo sapiens
[8] = cytotoxicity toward DRD oncogenic fibroblasts, dose response, cell-based, non-viral oncogenic, luminescence (AID 1934); assay type: functional; settings: Homo sapiens
INS1 = experiment: beta cell apoptosis inhibitors, cytokine rescue, dose response, luminescence, retest (AID 449756); assay type: functional, cell-based; settings: Rattus norvegicus;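 also: cell death triggered by IL-1 beta plus TNF-alpha plus IFN-gamma mixture; protective hits raise ATP signal compared with cytokine alone wells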
[9] = target: Mothers against decapentaplegic homolog 3 (Homo sapiens, UniProt P84022); experiment: SMAD3 transcription factor inhibitors, dose response (AID 715); assay type: functional
Sequence of Mothers against decapentaplegic homolog 3 (P84022 whole entry): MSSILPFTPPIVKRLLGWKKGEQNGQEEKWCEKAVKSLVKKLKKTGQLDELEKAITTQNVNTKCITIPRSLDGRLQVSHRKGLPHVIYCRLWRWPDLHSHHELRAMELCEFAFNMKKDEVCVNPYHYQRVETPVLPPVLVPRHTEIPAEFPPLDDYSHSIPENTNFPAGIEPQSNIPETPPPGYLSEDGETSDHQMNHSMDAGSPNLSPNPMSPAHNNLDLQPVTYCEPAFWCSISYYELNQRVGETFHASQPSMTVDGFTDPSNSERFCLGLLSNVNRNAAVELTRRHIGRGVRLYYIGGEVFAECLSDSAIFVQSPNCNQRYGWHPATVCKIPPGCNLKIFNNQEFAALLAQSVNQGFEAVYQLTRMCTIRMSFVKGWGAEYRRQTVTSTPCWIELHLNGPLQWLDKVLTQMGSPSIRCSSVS

[10] = target: T4, Heat shock factor protein 1 (Mus musculus, UniProt P38532); experiment: inhibition of MG132-induced HSE-luciferase signal, confirmation, cell-based, NIH3T3, luminescence, dose retest (AID 2382); assay type: functional;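 also: NIH3T3 fibroblasts with HSF1-driven luciferase reporter stressed by proteasome inhibitor MG132; luminescence from HSF1-driven luciferase expression after 8 hours of MG132 stress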
T4 sequence (P38532 whole entry): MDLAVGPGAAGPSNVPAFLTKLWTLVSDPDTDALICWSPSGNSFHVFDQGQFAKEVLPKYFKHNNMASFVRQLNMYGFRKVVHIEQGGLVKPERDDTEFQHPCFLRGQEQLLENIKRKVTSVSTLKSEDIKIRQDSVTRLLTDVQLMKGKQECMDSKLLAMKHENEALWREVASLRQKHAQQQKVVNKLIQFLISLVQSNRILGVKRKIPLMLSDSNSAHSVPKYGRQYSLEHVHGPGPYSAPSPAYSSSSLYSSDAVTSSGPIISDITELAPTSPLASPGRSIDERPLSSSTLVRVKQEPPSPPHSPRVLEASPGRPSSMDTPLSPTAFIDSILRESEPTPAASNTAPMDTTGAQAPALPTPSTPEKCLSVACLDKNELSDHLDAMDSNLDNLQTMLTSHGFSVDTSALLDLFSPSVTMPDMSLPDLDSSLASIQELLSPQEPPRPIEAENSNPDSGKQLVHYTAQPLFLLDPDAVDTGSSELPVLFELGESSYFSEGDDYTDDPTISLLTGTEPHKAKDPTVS

BJ [11] = experiment: cytotoxicity toward Ras-transformed BJeLR fibroblasts, dose response, cell-based, alamar blue fluorescence, cherrypicked samples (AID 2631); assay type: functional; settings: Homo sapiens;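 also: confirmatory dose-response assay in RAS-dependent BJ fibroblasts engineered with TERT, LT and ST, with cytotoxicity read by fluorescence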
[12] = target: T5, Apoptotic protease-activating factor 1 (Homo sapiens, UniProt O14727); assay type: functional
T5 sequence (O14727 whole entry): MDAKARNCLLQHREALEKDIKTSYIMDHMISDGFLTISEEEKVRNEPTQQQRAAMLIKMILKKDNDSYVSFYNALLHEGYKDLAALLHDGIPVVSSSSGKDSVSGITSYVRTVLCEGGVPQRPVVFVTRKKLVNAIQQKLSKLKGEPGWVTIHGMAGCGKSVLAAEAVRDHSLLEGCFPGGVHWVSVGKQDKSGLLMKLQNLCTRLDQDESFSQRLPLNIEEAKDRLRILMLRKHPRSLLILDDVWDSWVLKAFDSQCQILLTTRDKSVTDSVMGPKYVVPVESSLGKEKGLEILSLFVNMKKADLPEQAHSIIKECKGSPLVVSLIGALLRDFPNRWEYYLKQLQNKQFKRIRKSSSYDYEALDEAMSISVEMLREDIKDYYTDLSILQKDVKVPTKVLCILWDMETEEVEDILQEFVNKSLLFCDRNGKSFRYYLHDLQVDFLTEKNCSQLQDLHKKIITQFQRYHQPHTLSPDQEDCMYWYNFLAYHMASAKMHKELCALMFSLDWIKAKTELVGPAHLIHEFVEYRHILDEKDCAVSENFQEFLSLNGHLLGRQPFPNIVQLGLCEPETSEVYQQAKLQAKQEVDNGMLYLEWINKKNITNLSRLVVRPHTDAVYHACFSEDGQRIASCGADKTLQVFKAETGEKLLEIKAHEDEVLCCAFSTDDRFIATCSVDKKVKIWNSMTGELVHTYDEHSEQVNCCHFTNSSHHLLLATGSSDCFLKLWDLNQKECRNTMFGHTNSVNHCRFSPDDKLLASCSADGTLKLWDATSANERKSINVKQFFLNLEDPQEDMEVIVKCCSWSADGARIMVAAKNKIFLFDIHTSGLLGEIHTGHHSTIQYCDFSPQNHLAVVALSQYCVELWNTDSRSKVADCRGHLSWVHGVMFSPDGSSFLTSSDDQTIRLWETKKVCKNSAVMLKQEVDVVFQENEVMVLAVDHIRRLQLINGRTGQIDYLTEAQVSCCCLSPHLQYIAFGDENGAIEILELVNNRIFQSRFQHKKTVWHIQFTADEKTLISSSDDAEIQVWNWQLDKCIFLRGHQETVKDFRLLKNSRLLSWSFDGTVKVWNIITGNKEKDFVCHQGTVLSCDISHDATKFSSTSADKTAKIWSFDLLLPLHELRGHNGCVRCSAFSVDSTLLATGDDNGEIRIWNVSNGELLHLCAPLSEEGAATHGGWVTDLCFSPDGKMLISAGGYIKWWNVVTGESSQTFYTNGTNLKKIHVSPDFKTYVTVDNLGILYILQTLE

[13] = growth suppression of PTEN-null colon cells, dose response, cell-based, HCT116 PTEN knockout (AID 1047); assay type: functional;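 also: HCT116 colon tumor cells with PTEN knocked out; cells exposed to compound for 60 hours before readout; potency for loss of cell viability measured by luminescence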
BJ [14] = experiment: cytotoxicity toward BJ-TERT fibroblasts, dose response, cell-based, RAS-independent, luminescence (AID 1933); assay type: functional; settings: Homo sapiens
BJ [15] = experiment: cytotoxicity toward BJ-TERT-LT-ST fibroblasts, dose response, cell-based, RAS-independent, luminescence (AID 1935); assay type: functional; settings: Homo sapiens;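 also: BJ fibroblasts immortalized with TERT plus LT and ST oncogenes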
[16] = growth suppression of beta-catenin-knockout colon cells, dose response, cell-based, HCT116, human colon tumor (AID 1045); assay type: functional;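 also: HCT116 colon tumor cells with beta catenin knocked out; cells exposed to compound for 60 hours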
[17] = target: 5-hydroxytryptamine receptor 1E (Homo sapiens, UniProt P28566); experiment: Counterscreen assay for S1P3 antagonists: Dose response cell-based high throughput screening assay to identify antagonists of the 5-Hydroxytryptamine Receptor Subtype 1E (5HT1E). [Related pubchem assays: 1429, 485 ]; assay type: functional
Sequence of 5-hydroxytryptamine receptor 1E (P28566 whole entry): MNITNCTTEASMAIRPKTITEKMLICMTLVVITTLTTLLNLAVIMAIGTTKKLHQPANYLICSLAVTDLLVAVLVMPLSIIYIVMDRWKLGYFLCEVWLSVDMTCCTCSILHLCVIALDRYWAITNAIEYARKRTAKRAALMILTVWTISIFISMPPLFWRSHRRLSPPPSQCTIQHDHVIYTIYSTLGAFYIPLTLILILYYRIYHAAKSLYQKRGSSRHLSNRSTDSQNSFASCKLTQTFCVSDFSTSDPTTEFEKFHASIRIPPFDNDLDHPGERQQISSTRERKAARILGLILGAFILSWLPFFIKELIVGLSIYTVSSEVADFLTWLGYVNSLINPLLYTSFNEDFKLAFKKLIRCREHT

[18] = target: Sphingosine 1-phosphate receptor 3 (Homo sapiens, UniProt Q99500); experiment: Dose response cell-based high throughput screening assay for antagonists of the Sphingosine 1-Phosphate Receptor 3 (S1P3). [Related pubchem assays: 1429, 485 ]; assay type: functional
Sequence of Sphingosine 1-phosphate receptor 3 (Q99500 whole entry): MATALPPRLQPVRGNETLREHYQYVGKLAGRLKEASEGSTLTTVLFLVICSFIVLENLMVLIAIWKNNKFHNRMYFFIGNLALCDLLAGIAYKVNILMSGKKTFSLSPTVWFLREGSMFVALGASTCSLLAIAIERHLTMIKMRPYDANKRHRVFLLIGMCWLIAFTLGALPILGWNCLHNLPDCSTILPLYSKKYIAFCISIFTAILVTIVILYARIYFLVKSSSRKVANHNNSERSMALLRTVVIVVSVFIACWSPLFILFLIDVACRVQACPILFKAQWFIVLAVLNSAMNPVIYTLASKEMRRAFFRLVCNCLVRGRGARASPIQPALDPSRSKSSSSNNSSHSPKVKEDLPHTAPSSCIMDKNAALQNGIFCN

Sequence of Genome polyprotein (P29990 2492-3391 limits assumed): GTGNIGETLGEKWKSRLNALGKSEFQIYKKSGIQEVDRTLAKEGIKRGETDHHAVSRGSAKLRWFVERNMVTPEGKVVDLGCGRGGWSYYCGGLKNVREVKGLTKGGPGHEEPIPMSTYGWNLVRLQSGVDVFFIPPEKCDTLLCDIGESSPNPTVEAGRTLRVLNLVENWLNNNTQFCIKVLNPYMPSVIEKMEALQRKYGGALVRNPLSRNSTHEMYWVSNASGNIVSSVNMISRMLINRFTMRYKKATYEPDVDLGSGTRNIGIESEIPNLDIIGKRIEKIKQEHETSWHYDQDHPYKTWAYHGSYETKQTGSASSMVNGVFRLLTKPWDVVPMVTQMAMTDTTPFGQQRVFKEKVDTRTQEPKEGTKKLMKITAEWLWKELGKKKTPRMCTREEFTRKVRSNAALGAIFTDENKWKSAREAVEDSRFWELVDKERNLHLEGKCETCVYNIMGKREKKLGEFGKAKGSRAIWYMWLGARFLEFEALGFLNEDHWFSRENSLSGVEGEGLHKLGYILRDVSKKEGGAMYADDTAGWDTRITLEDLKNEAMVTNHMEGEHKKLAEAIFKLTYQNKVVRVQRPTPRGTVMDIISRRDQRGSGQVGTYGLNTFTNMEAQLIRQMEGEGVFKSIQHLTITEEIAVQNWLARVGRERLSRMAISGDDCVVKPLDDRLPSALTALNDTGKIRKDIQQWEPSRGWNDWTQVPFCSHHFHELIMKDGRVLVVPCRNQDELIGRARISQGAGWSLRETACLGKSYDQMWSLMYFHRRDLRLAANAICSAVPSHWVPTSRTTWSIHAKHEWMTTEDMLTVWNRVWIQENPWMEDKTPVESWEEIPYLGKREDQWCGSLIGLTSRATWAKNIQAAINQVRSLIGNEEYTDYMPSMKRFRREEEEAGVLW

In the case of CC(C)c1nnc(NC(=O)c2nc(S(=O)(=O)Cc3ccccc3)ncc2Cl)s1, the IC50 (Genome polyprotein) was > 100 µM (active), the EC50 [1] was 6.2 µM (active) and the EC50 (Protein RecA) was 8.12 µM (active). For the same molecule, the AC50 [2] was 6.32 µM (active), the IC50 [3] was 4.47 µM (active) and the EC50 [4] was 36.8 µM (active). For the same molecule, the CC50 (Vero) was 25.9 µM (active), the AC50 [5] was 0.876 µM (active) and the AC50 [6] was 48 µM (active).

For O=C1C(=O)c2ccc(-c3ccccc3)cc2-c2ccccc21, the EC50 (BJ [7]) was 2.75 µM (inconclusive), the EC50 [8] was 2.21 µM (active) and the AC50 (INS1) was 1.04 µM (active). For the same molecule, the IC50 [9] was 2 µM (active), the EC50 [10] was 1.75 µM (active) and the EC50 (BJ [11]) was 1.6 µM (active). The IC50 [12] was 0.316 µM (active), the EC50 [13] was 1.16 µM (active) and the EC50 (BJ [14]) was 1.02 µM (active). The EC50 (BJ [15]) was 1.23 µM (inconclusive) and the EC50 [16] was 1.21 µM (active).

With Cc1cc(C(=O)OC(C(=O)Nc2ccc(C)c(Cl)c2)c2ccccc2)c(C)o1 (configuration not stated) the IC50 [17] was 13.4 µM (not active) and the IC50 [18] was 11.8 µM (not active).
